Reference: ChEMBL document CHEMBL5233217, “Modification of 7-piperazinylquinolone antibacterials to promising anticancer lead compounds: Synthesis and in vitro studies” (Eur J Med Chem, 2020)
Blank lines part the entries; values can stand above or below the compound they belong to.

Tests used:
[1] = tested on: A549; experiment: Anticancer activity against human A549 cells assessed as reduction in cell viability incubated for 72 hrs by MTT assay; assay type: functional, cell-based; conditions: A549, 72 h
[2] = tested on: HL-60; experiment: Anticancer activity against human HL-60 cells assessed as reduction in cell viability incubated for 72 hrs by MTT assay; assay type: functional, cell-based; conditions: HL-60, 72 h
[3] = tested on: HeLa; experiment: Anticancer activity against human HeLa cells assessed as reduction in cell viability incubated for 72 hrs by MTT assay; assay type: functional, cell-based
[4] = tested on: L1210; experiment: Cytotoxicity against mouse L1210 cells assessed as reduction in cell viability by MTT assay; assay type: functional, cell-based
[5] = tested on: HL-60; experiment: Cytotoxicity against human HL-60 cells assessed as reduction in cell viability by MTT assay; assay type: functional, cell-based
[6] = Cytotoxicity against Chinese hamster CHO cells assessed as reduction in cell viability by MTT assay; assay type: toxicity, cell-based, Cricetulus griseus
[7] = tested on: Panel NCI-60 (60 carcinoma cell lines); experiment: Anticancer activity against human Panel NCI-60 (60 carcinoma cell lines) cells assessed as cell growth inhibition incubated for 48 hrs by sulforhodamine B assay; assay type: functional
[8] = tested on: A549; experiment: Antitumor activity against human A549 cells assessed as reduction in cell viability incubated for 4 hrs by MTT assay; assay type: functional, cell-based; conditions: A549, 4 h
[9] = tested on: CT26; experiment: Antitumor activity against mouse CT26 cells assessed as reduction in cell viability incubated for 4 hrs by MTT assay; assay type: functional, cell-based; conditions: CT26, 4 h
[10] = tested on: KB; experiment: Anticancer activity against human KB cells assessed as reduction in cell viability incubated for 72 hrs by MTT assay; assay type: functional, cell-based
[11] = tested on: EJ; experiment: Anticancer activity against human EJ cells assessed as reduction in cell viability incubated for 72 hrs by MTT assay; assay type: functional, cell-based
[12] = tested on: SW480; experiment: Anticancer activity against human SW480 cells assessed as reduction in cell viability incubated for 72 hrs by MTT assay; assay type: functional, cell-based; conditions: SW480, 72 h
[13] = tested on: SK-MEL3; experiment: Anticancer activity against human SK-MEL3 cells assessed as reduction in cell viability incubated for 72 hrs by MTT assay; assay type: functional, cell-based; conditions: SK-MEL3, 72 h
[14] = tested on: A-431; experiment: Anticancer activity against human A-431 cells assessed as reduction in cell viability incubated for 72 hrs by MTT assay; assay type: functional, cell-based; conditions: A-431, 72 h
[15] = tested on: MCF7; experiment: Anticancer activity against human MCF7 cells assessed as reduction in cell viability incubated for 72 hrs by MTT assay; assay type: functional, cell-based; conditions: MCF7, 72 h

SMILES: O=C(N/N=C/c1ccccc1O)c1cn(C2CC2)c2cc(N3CCNCC3)c(F)cc2c1=O
- IC50 [4]: 25 µM
- IC50 [5]: 25 µM
- IC50 [6]: 25 µM

SMILES: CCn1cc(C(=O)O)c(=O)c2cc(F)c(N3CCN(C(=N)NS(=O)(=O)c4ccccc4C(F)(F)F)CC3)cc21
- IC50 [1]: 0.071 µM
- IC50 [2]: 0.043 µM
- IC50 [3]: 0.032 µM

SMILES: COc1ccc(C(=O)CN2CCN(c3cc4c(cc3F)c(=O)c(C(=O)O)cn4-c3ccc(N)cc3F)CC2)cc1
- GI50 [7]: 22 µM

SMILES: O=C(O)c1cn(C2CC2)c2cc(N3CCN(S(=O)(=O)c4ccc(Cl)c(Cl)c4)CC3)c(F)cc2c1=O
- GI50 [7]: 2.63 µM

SMILES: CCn1cc(C(=O)O)c(=O)c2cc(F)c(N3CCN(C/C(=N/OC)c4ccc(Cl)s4)CC3)cc21
- IC50 [10]: < 10 µM
- IC50 [11]: < 10 µM
- IC50 [12]: < 10 µM
- IC50 [13]: < 10 µM
- IC50 [14]: < 10 µM
- IC50 [15]: < 10 µM

SMILES: N=C(NS(=O)(=O)c1ccc(C(F)(F)F)cc1)N1CCN(c2cc3c(cc2F)c(=O)c(C(=O)O)cn3C2CC2)CC1
- IC50 [1]: 0.071 µM
- IC50 [2]: 0.043 µM
- IC50 [3]: 0.032 µM

SMILES: CO/N=C(/CN1CCN(c2cc3c(cc2F)c(=O)c(C(=O)O)cn3C2CC2)CC1)c1ccc(Cl)s1
- IC50 [10]: < 10 µM
- IC50 [11]: < 10 µM
- IC50 [12]: < 10 µM
- IC50 [13]: < 10 µM
- IC50 [14]: < 10 µM
- IC50 [15]: < 10 µM

SMILES: COc1ccc(/C=N/NC(=O)c2cn(C3CC3)c3cc(N4CCNCC4)c(F)cc3c2=O)cc1O
- IC50 [4]: 25 µM
- IC50 [5]: 25 µM
- IC50 [6]: 25 µM

SMILES: CCn1cc(C(=O)O)c(=O)c2cc(F)c(N3CCN(S(=O)(=O)c4ccc(Cl)cc4Cl)CC3)cc21
- GI50 [7]: 2.63 µM

SMILES: CCn1cc(C(=O)O)c(=O)c2cc(F)c(N3CCN(C/C(=N/O)c4ccc(Cl)s4)CC3)cc21
- IC50 [10]: < 10 µM
- IC50 [11]: < 10 µM
- IC50 [12]: < 10 µM
- IC50 [13]: < 10 µM
- IC50 [14]: < 10 µM
- IC50 [15]: < 10 µM

SMILES: CCn1cc(C(=O)O)c(=O)c2cc(F)c(N3CCN(S(=O)(=O)c4cccc5ccccc45)CC3)cc21
- GI50 [7]: 2.63 µM

SMILES: O=C(N/N=C/c1ccc([N+](=O)[O-])cc1)c1cn(C2CC2)c2cc(N3CCNCC3)c(F)cc2c1=O
- IC50 [4]: 25 µM
- IC50 [5]: 25 µM
- IC50 [6]: 25 µM

Further lines, with some results ahead:

- IC50 [1]: 0.071 µM
- IC50 [2]: 0.043 µM
- IC50 [3]: 0.032 µM
SMILES: N=C(NS(=O)(=O)c1cccc(Cl)c1)N1CCN(c2cc3c(cc2F)c(=O)c(C(=O)O)cn3C2CC2)CC1

- IC50 [1]: 0.071 µM
- IC50 [2]: 0.043 µM
- IC50 [3]: 0.032 µM
SMILES: N=C(NS(=O)(=O)c1ccc(Cl)cc1)N1CCN(c2cc3c(cc2F)c(=O)c(C(=O)O)cn3C2CC2)CC1

- IC50 [1]: 0.071 µM
- IC50 [2]: 0.043 µM
- IC50 [3]: 0.032 µM
SMILES: N=C(NS(=O)(=O)c1ccccc1C(F)(F)F)N1CCN(c2cc3c(cc2F)c(=O)c(C(=O)O)cn3C2CC2)CC1

- IC50 [8]: 150 µM
- IC50 [9]: 150 µM
SMILES: CCn1cc(C(=O)O)c(=O)c2cc(F)c(N3CCN(CP(=O)(c4ccccc4)c4ccccc4)CC3)cc21

- IC50 [10]: < 10 µM
- IC50 [12]: < 10 µM
- IC50 [13]: < 10 µM
- IC50 [14]: < 10 µM
- IC50 [15]: < 10 µM
SMILES: CCn1cc(C(=O)O)c(=O)c2cc(F)c(N3CCN(C/C(=N/OC)c4ccc(Cl)s4)CC3)nc21
- IC50 [11]: < 10 µM

- IC50 [1]: 0.071 µM
- IC50 [2]: 0.043 µM
- IC50 [3]: 0.032 µM
SMILES: CCn1cc(C(=O)O)c(=O)c2cc(F)c(N3CCN(C(=N)NS(=O)(=O)c4ccc(C(F)(F)F)cc4)CC3)cc21

- IC50 [8]: 150 µM
- IC50 [9]: 150 µM
SMILES: O=C(O)c1cn(C2CC2)c2cc(N3CCN(CP(=O)(c4ccccc4)c4ccccc4)CC3)c(F)cc2c1=O

- IC50 [8]: 150 µM
- IC50 [9]: 150 µM
SMILES: O=C(O)c1cn(C2CC2)c2cc(N3CCN(CP(c4ccccc4)c4ccccc4)CC3)c(F)cc2c1=O

- IC50 [8]: 150 µM
- IC50 [9]: 150 µM
SMILES: CCn1cc(C(=O)O)c(=O)c2cc(F)c(N3CCN(CP(=S)(c4ccccc4)c4ccccc4)CC3)cc21

- IC50 [1]: 0.071 µM
- IC50 [2]: 0.043 µM
- IC50 [3]: 0.032 µM
SMILES: CCn1cc(C(=O)O)c(=O)c2cc(F)c(N3CCN(C(=N)NS(=O)(=O)c4cccc(Cl)c4)CC3)cc21

- IC50 [1]: 0.071 µM
- IC50 [2]: 0.043 µM
- IC50 [3]: 0.032 µM
SMILES: CCn1cc(C(=O)O)c(=O)c2cc(F)c(N3CCN(C(=N)NS(=O)(=O)c4ccccc4)CC3)cc21

- IC50 [10]: < 10 µM
- IC50 [12]: < 10 µM
- IC50 [13]: < 10 µM
- IC50 [14]: < 10 µM
- IC50 [15]: < 10 µM
SMILES: CCn1cc(C(=O)O)c(=O)c2cc(F)c(N3CCN(C/C(=N/O)c4ccc(Cl)s4)CC3)nc21
- IC50 [11]: < 10 µM

- IC50 [10]: < 10 µM
- IC50 [12]: < 10 µM
- IC50 [13]: < 10 µM
- IC50 [14]: < 10 µM
- IC50 [15]: < 10 µM
SMILES: CCn1cc(C(=O)O)c(=O)c2cc(F)c(N3CCN(CC(=O)c4ccc(Cl)s4)CC3)cc21
- IC50 [11]: < 10 µM
